Measurements: ChEMBL document CHEMBL2074252, “The specific bisindolylmaleimide PKC-inhibitor GF 109203X efficiently modulates MRP-associated multiple drug resistance” (Biochem Biophys Res Commun, 1995)

Target: Multidrug resistance-associated protein 1 (Homo sapiens, UniProt P33527)
Test: TP_TRANSPORTER: inhibition of Rhodamine 123 efflux (R123: 0.8 ug/mL, GF109203X: 10 uM) in HL60/AR cells
Type: functional, cell-based

Multidrug resistance-associated protein 1, sequence (P33527 whole entry): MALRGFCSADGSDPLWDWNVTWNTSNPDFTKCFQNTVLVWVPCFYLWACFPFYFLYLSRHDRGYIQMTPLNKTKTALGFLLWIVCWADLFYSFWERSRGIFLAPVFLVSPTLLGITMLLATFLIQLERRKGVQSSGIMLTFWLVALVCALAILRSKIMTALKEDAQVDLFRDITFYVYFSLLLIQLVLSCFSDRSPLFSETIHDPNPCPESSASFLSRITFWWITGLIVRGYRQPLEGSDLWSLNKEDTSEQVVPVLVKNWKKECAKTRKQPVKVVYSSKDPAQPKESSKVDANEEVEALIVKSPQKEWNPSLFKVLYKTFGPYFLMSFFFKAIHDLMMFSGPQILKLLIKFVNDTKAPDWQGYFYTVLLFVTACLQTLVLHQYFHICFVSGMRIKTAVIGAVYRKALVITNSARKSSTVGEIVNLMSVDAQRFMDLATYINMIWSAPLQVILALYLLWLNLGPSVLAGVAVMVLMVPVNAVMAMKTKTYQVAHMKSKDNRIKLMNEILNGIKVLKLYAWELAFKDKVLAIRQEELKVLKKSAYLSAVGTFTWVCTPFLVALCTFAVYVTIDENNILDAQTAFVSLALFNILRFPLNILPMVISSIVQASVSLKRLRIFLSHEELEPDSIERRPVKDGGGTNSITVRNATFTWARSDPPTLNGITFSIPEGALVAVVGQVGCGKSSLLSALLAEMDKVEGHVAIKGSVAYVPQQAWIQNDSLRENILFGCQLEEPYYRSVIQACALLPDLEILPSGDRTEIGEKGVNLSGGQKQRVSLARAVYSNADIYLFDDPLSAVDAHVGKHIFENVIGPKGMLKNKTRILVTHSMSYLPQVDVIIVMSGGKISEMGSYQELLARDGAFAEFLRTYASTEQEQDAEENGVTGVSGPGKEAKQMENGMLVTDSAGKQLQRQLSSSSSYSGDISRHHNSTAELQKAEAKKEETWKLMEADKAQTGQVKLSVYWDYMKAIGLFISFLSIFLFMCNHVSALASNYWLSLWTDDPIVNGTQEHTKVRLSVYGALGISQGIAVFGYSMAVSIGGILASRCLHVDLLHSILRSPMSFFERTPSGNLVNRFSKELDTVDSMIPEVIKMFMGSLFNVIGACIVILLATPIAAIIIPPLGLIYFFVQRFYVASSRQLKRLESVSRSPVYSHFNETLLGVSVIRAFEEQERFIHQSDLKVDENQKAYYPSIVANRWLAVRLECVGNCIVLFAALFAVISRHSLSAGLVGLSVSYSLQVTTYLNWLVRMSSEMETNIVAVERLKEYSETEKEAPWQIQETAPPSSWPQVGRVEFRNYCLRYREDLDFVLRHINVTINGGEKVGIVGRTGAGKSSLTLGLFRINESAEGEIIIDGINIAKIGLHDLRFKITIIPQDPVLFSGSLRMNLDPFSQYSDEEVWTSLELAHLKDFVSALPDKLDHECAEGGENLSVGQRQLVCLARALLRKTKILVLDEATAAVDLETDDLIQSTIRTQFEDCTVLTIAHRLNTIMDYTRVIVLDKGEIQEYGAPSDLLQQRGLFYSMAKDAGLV

SMILES: CN(C)CCCn1cc(C2=C(c3c[nH]c4ccccc34)C(=O)NC2=O)c2ccccc21 [GF-109203]
- Activity: inhibitor [+]
